Source: article PMC11971087, “Unveiling the in vitro activity of extracted Euphorbia trigona via Supercritical Fluid Extraction against pathogenic yeasts, obesity, cancer, and its wound healing properties” (Bioresources and Bioprocessing, 2025)
Converted amounts (≈) assume the structure as drawn.

Target: T1, lipase
T1 construct: gene PNLIP; pig pancreas is only the usual preparation
Assay: 4-nitrophenyl butyrate hydrolysis, absorbance at […] nm
Assay type: biochemical
Conditions: potassium phosphate pH 7.0, 37 °C, 10 min, standard drug, covalent

IC50: 6.4 µg/mL (≈ 12.9 µM)
Compound: CCCCCCCCCCC[C@@H](C[C@@H]1OC(=O)[C@H]1CCCCCC)OC(=O)[C@H](CC(C)C)NC=O [Orlistat]
